Test results as given in patent US20230150951A1, “2,5- OR 2,6-DISUBSTITUTED HYDROQUINONE DERIVATIVES WITH AT LEAST ONE CARBOXY, SULFO OR AMIDO GROUP USEFUL AS MEDICAMENTS” (OM PHARMA SA, priority 2020, published 2023).
Entries after “also recorded” stand apart in the source; their conditions may differ.

What was measured:
[1] = test system: acute pancreatitis murine model; assay: Caerulein-induced acute pancreatitis murine model; assay type: in vivo, Balb/c mice; set-up: Serum IL33 level / Serum TGF-B level: unit not given here; settings: for Schmidt Score (H&E): induced + vehicle = 10, non-induced = 0; for Pancreas IL33 level / Pancreas MPO activity / Pancreas TGF-B level: terminal pancreatic tissue; for Serum IL33 level / Serum TGF-B level / Serum amylase level / Serum lipase level: terminal serum; for pancreatic tissue levels of IL33: compared to the induced group
[2] = test system: human retinal endothelial cells (HRECs); assay: Inner blood retinal barrier: HREC monolayer permeability to FITC-dextran; assay type: cell-based; settings: for p < 0.05 (HREC permeability versus diabetic milieu): IL-β, after 90 min
Description: The mechanisms of actions involved in the anti-permeability effect of the tested treatments were explored by assessing permeability to fluorescent dextran and proinflammatory cytokines production using their mRNA expression levels by RT-PCR.
Inner Blood Retinal Barrier conditions: primary human retinal endothelial cells (HRECs) were obtained from a vial of cryopreserved cells purchased from Innoprot (Vizcay, Spain). These cells were isolated from human retinal tissue of cadaveric eyes digested with 0.1 mg/mL collagenase type I at 37° C. for 1 hour. Then, endothelial cells were finally selected with CD31 antibody-coated magnetic beads (DynaBeads; Dynal, Oslo, Norway). HRECs were thawed in the laboratory and cultured in endothelial basal medium (EBM) containing, 5.5 mM D-glucose, 5% FBS (Fetal Bovine Serum), 100 U/mL penicillin, 100 μg/mL streptomycin, and ECG (Endothelial Cell Growth Supplement) supplement (Innoprot, Vizcay, Spain). Human fibronectin (MerckMillipore, Madrid, Spain) at 5 μg/mL was used for cell attachment. Cells at passages 2-3 will be used for the experiments. For experimentation, HRECs were grown to confluence and then cell culture media was changed to medium supplemented with 1% FBS for 24 h and then exposed to different treatments.
Conditions treatments: The same conditions specified for the experiment in ARPE-19 cells were used.
Measurement of HREC permeability: Permeability in HREC monolayers were obtained on permeable supports at 12×10^5 cells/well (24 wells, PCF filters, Merk Millipore). Inserts were incubated for 48 hours at 37° C. in 5% CO2-air to form the monolayer. At the end, medium was serum depleted 24 h before to proceed with the treatments. The lower chamber was filled with 600 μL of complete EBM medium and the upper chamber with 100 μL of cell suspension in serum depleted (1%).
To detect changes in the permeability, 100 μg/ml of fluorescent FITC-DEXTRAN (Sigma, Madrid, Spain), was added to the upper side of the insert. Aliquots of 200 μL from the basal compartment was read in a SpectraMax Gemini (Molecular Devices, Sunnyvale, Calif.) at a wavelength of excitation/emission 485/528 nm every 30 min. Finally, the concentration of dextran was determined by extrapolation of the fluorescence reads in a standard curve. Each condition was tested in triplicate.

[3] = test system: STZ-induced diabetes model; assay: STZ-induced diabetic nephropathy, kidney disease and retinopathy model (28 days treatment); settings: for Retina vasculature coverage: retinal flat mounts, FITC-dextran; for Blood CRP / Blood IL-6 / Blood TGF-beta / Blood TNF-alpha: serum
[4] = 1st experiment, caerulein induced, 15 mg/kg IV, Ib-010a and IVc-059a 150 mg/kg PO, Pirfenidone 40 mg/kg IV
[5] = 1st experiment, 15 mg/kg IV, Ib-010a and IVc-059a 150 mg/kg PO, Pirfenidone 40 mg/kg IV
[6] = second experiment, IV, 15 mg/kg, Pirfenidone 100 mg/kg
[7] = No 3-5: 25 mM D-Gluc + compound 25 μg/mL
[8] = No 6-8: 25 mM D-Gluc + compound 50 μg/mL + VEGF, TNF-α, IL-β (so in the source)
[9] = No 11-13: 25 mM D-Gluc + compound 25 μg/mL + VEGF, TNF-α, IL-β (diabetic milieu)
[10] = No 11-13: compound 25 μg/mL + VEGF, TNF-α
[11] = No 14-16: 25 mM D-Gluc + compound 50 μg/mL + VEGF, TNF-α, IL-β (diabetic milieu)
[12] = day 28, vs induced vehicle controls
[13] = day 28 of treatment (week 9), 15 mg/kg IV, Captopril 50 mg/kg PO

O=C(O)c1cc(O)cc(CS(=O)(=O)Cc2cc(O)cc(C(=O)O)c2O)c1O [IVc-059a, 3-((2,5-Dihydroxy-3-carboxyphenyl)methylsulfonylmethyl)-2,5-dihydroxybenzoic acid]
Acinar cell necrosis (group mean score) [1, 4]: 1.0 | Haemorrhage (group mean score) [1, 4]: 1.0 | Interstitial oedema (group mean score) [1, 4]: 1.0 | Leukocyte infiltration (group mean score) [1, 4]: 1.0 | Mean terminal BW (% of initial) [1, 4]: 93.3 % of initial | Mean terminal pancreas weight [1, 4]: 0.09 g | Pancreas histopathology observations (H&E) [1, 4]: Mild oedema less observed; also recorded: Mild haemorrhage less observed; also recorded: Mild acinar cell necrosis observed; also recorded: Mild leukocyte infiltration observed; also recorded: Some pancreatic islet hyperplasia observed; also recorded: Disruption to the basophilic region | Schmidt Score (H&E) [1, 4]: 4.0 | Pancreas IL33 level [1, 5]: 86 ± 23 | Pancreas MPO activity [1, 5]: 2.88 | Pancreas TGF-B level [1, 5]: 231 ± 199 | Serum IL33 level [1, 5]: 46.54 | Serum TGF-B level [1, 5]: 5.69 | Serum amylase level [1, 5]: 38.56 | Serum lipase level [1, 5]: 10.21 | TGF-B levels in pancreas ([1]; first experiment, IV): decreased significantly | pancreatic tissue levels of IL33 ([1]; first experiment, IV): significant decrease | Global Schmidt score ([1]; first experiment, vs caerulein control animals): especially improved | Schmidt Score ([1]; second experiment, H&E sections): lower scores than the positive control pirfenidone | Amylase [1, 6]: 41.149 mU/mL | IL-33 [1, 6]: 215 ± 84 ng/mL | Lipase [1, 6]: 4.324 mU/mL | MPO [1, 6]: 1.813 ± 0.405 U/mg | Schmidt Score [1, 6]: 10.63 ± 2.33 | TGF-B [1, 6]: 403 ± 84 ng/mL | Trichome staining (Fibrosis % area) [1, 6]: 1.048 ± 0.449 % area | Lipase activity in serum ([1]; second experiment, pirfenidone 100 mg/kg, compounds 15 mg/k, vs vehicle treated animals): significantly lower than that in vehicle treated animals | MPO activity in pancreatic tissue ([1]; second experiment, vs induced vehicle treated controls): significantly lower than induced vehicle treated controls | % permeability HREC [2, 7]: 109.9 ± 24.7% | % permeability HREC [2, 8]: 135.4 ± 6.7% | % permeability HREC [2, 9]: 124.0 ± 6.3% | p < 0.05 (HREC permeability versus diabetic milieu) [2, 10]: * (* p < 0.05 for FITC dextran leakage measured after 90 min in [ng/mL/cm^2] in comparison with diabetic milieu (25 mM D-Gluose + VEGF, TNF-α, IL-β)) | % permeability HREC [2, 11]: 115.3 ± 14.7% | p < 0.05 (HREC permeability versus diabetic milieu) ([2]; No 14-16: compound 50 μg/mL + VEGF, TNF-α): * (* p < 0.05 for FITC dextran leakage measured after 90 min in [ng/mL/cm^2] in comparison with diabetic milieu (25 mM D-Gluose + VEGF, TNF-α, IL-β)) | Retina vasculature coverage ([3]; 28 days): significantly decreased | Kidney collagen levels (Masson's Trichrome) ([3]; 28 days, vs induced vehicle controls): significantly decreased | Blood glucose levels on day 28 ([3]; IV, vs induced vehicle controls): significant reduction | Mean day 0 blood glucose Concentration (mmol/L) (SD) ([3]; day 0, 15 mg/kg IV, Captopril 50 mg/kg PO): 24.3 (6.4) mmol/L | Mean day 28 blood glucose Concentration (mmol/L) (SD) ([3]; day 28, 15 mg/kg IV, Captopril 50 mg/kg PO): 23.7 (6.6) mmol/L | Blood urea nitrogen levels [3, 12]: significantly lower than induced vehicle controls | Blood BUN [3, 13]: 22.5 ± 2.8 | Disease Score (kidney, H&E) [3, 13]: 7 ± 1 | Eye area (retinal flatmount area covered by vasculature) [3, 13]: 8.7 ± 1.2 | Trichrome staining (Kidney fibrosis) [3, 13]: 1.48 ± 0.73 | Blood CRP [3, 13]: 5691 ± 1395 | Blood IL-6 [3, 13]: 120.88 ± 23.05 | Blood TGF-beta [3, 13]: 13.47 ± 3.33 | Blood TNF-alpha [3, 13]: 350.2 ± 41.4 | Urine albumine creatinine ratio (ALB:CRE) ([3]; day 28 of treatment (week 9), urine pooled per group, 15 mg/kg IV, Captopril 50 mg/kg PO): 18.85 | Urine ALB:CREA ([3]; treatment day 28): reduced

O=C(O)c1cc(NC(=O)c2cc(O)c(C(=O)Nc3ccc(O)c(C(=O)O)c3)cc2O)ccc1O [Ic-007a, 5-(4-(3-carboxy-4-hydroxyphenylaminocarbonyl)-2,5-dihydroxybenzamido)-2-hydroxy benzoic acid]
Acinar cell necrosis (group mean score) [1, 4]: 1.0 | Haemorrhage (group mean score) [1, 4]: 1.0 | Interstitial oedema (group mean score) [1, 4]: 1.0 | Mean terminal BW (% of initial) [1, 4]: 91.2 % of initial | Mean terminal pancreas weight [1, 4]: 0.109 g | Pancreas histopathology observations (H&E) [1, 4]: Mild oedema observed; also recorded: Mild haemorrhage observed; also recorded: Mild acinar cell necrosis observed; also recorded: Leukocyte infiltration observed; also recorded: Disruption to the basophilic region | Schmidt Score (H&E) [1, 4]: 6.0 | Pancreas IL33 level [1, 5]: 147 ± 47 | Pancreas MPO activity [1, 5]: 1.65 | Pancreas TGF-B level [1, 5]: 188 ± 77 | Serum IL33 level [1, 5]: 34.93 | Serum TGF-B level [1, 5]: 6.17 | Serum amylase level [1, 5]: 34.86 | Serum lipase level [1, 5]: 9.28 | TGF-B levels in pancreas ([1]; first experiment, IV): decreased significantly | pancreatic tissue levels of IL33 ([1]; first experiment, IV): significant decrease | % permeability HREC [2, 7]: 126.3 ± 8.3% | % permeability HREC [2, 8]: 127.4 ± 2.1% | % permeability HREC [2, 9]: 111.6 ± 24.2% | p < 0.05 (HREC permeability versus diabetic milieu) [2, 10]: * (* p < 0.05 for FITC dextran leakage measured after 90 min in [ng/mL/cm^2] in comparison with diabetic milieu (25 mM D-Gluose + VEGF, TNF-α, IL-β)) | % permeability HREC [2, 11]: 159.0 ± 23.9% | Retina vasculature coverage ([3]; 28 days): significantly decreased | Blood urea nitrogen levels [3, 12]: significantly lower than induced vehicle controls | Blood BUN [3, 13]: 21.7 ± 3.0 | Disease Score (kidney, H&E) [3, 13]: 7 ± 1 | Eye area (retinal flatmount area covered by vasculature) [3, 13]: 9.1 ± 1.1 | Trichrome staining (Kidney fibrosis) [3, 13]: 2.23 ± 0.61 | Blood CRP [3, 13]: 5707 ± 892 | Blood IL-6 [3, 13]: 109.27 ± 19.03 | Blood TGF-beta [3, 13]: 16.66 ± 2.11 | Blood TNF-alpha [3, 13]: 326.8 ± 63^
